# Measured values as given in patent US20150030583A1, “Methods of Treating Serosal Cancer” (SLOAN KETTERING INSTITUTE FOR CANCER RESEARCH, priority 2011, published 2015).
# pIC50: −log10 of the molar value. Structures can show the parent of a compound that is named as a salt. Where two headings read alike, the source gives them in different places.
# Legend:
# [1] = test system: catena cells; assay: Morphological observation of treated catenae under the microscope; type: cell-based; details: for morphological change of treated catenae: microscope observation; for cells seen in cultures treated with high concentrations of compounds: 100 μM (rapamycin 25 μM, lovastatin acid 50 μM), cells re-entered the cell cycle without drug
# [2] = test system: Ovcar3-GTL catenae; assay: Ovcar3-GTL catena drug sensitivity / proliferation screen (alamarBlue, 384-well); details: for Increase in Resistance Day6/Day 1: ratio of IC50 day 6 to day 1, Ovcar3-GTL catenae; for Fold resistance: increased resistance of catena cells with glycocalyx coat versus no coat; for Increased Resistance of catena: catena with established glycocalyx versus monolayers
# [3] = test system: established tumor spheroids; assay: Established tumor spheroid drug sensitivity (alamarBlue)
# [4] = test system: Ovcar5 monolayer (mesenchymal) cells; assay: Ovarian cancer monolayer drug sensitivity (alamarBlue), Ovcar5; type: cell-based; details: 25 cells seeded; drugs added 4 days after seeding; read-out: IC50 (μM) Ovcar5 monolayer
# Protocol: (§1) The foregoing total of 29 compounds were tested in parallel on ovarian cancer monolayer cells by seeding 100 Ovcar3 monolayer (epithelial) or 25 Ovcar5 monolayer (mesenchymal) cells in 384-well plates. Drugs were added 4 days after cell seeding and cell viability was analyzed by alamarBlue staining. In general, catena cells with an established glycocalyx were on average 4-8 fold more resistant to these compounds when compared to monolayers. […]
# [5] = test system: Ovcar3 monolayer (epithelial) cells; assay: Ovarian cancer monolayer drug sensitivity (alamarBlue), Ovcar3; type: cell-based; details: 100 cells seeded; drugs added 4 days after seeding; read-out: IC50 (μM) Ovcar3 monolayer
# Protocol: as §1
# [6] = 24 h, read-out: IC50 (μM) Addition on Day 1, Ovcar3-GTL catenae, compound added one day after seeding (cells predominantly lacking a glycocalyx)
# [7] = 144 h, read-out: IC50 (μM) Addition on Day 6, Ovcar3-GTL catenae, compound added six days after seeding (established or substantial glycocalyx)
# [8] = read-out: IC50 (μM) Addition on Day 1, Ovcar3-GTL catenae, compound added one day after seeding (cells predominantly lacking a glycocalyx)
# [9] = read-out: IC50 (μM) Addition on Day 6, Ovcar3-GTL catenae, compound added six days after seeding (established or substantial glycocalyx)
# [10] = read-out: IC50 (μM) No coat, pathway-specific inhibitors, catena cells without glycocalyx coat
# [11] = read-out: IC50 (μM) With coat, pathway-specific inhibitors, catena cells with glycocalyx coat
# [12] = LOPAC 1280 HTS, compound at 0.2 μM
# [13] = 24 h, read-out: IC50 (μM) Addition on Day 1
# [14] = 144 h, read-out: IC50 (μM) Addition on Day 6
compound,measurement,setting,value
"O=c1[nH]cc(F)c(=O)[nH]1 [5-FU, 5-fluorouracil]",morphological change of treated catenae,[1],formation of fused chains
same,IC50,[2]; [6],3 µM
same,IC50,[2]; [7],> 100 µM
same,Increase in Resistance Day6/Day 1,[2],33 fold
Nc1ccn([C@@H]2O[C@H](CO)[C@@H](O)[C@@H]2O)c(=O)n1 [Ara-C],cells seen in cultures treated with high concentrations of compounds,[1],"live, large single cells, i.e., cells arrested at mitosis"
same,Increase in Resistance Day6/Day 1,[2],"2,000 fold"
same,IC50,[2]; [8],0.05 µM
same,IC50,[2]; [9],> 100 µM
"O=C(CCCCCCC(=O)Nc1ccccc1)NO [SAHA, Vorinostat]",morphological change of treated catenae,[1],formation of tight spheroids
"CNC(=O)c1cc(Oc2ccc(NC(=O)Nc3ccc(Cl)c(C(F)(F)F)c3)cc2)ccn1 [Sorafenib Tosylate (Bay 43-9006), Sorafenib Tosylate]",IC50,[2]; [10],13.4 µM
same,IC50,[2]; [11],13.4 µM
"CCN(CC)CCNC(=O)c1c(C)[nH]c(/C=C2\C(=O)Nc3ccc(F)cc32)c1C [Sunitinib Malate (Sutent), Sunitinib Malate]",Fold resistance,[2],4 fold
same,IC50,[2]; [10],3.14 µM
same,IC50,[2]; [11],13.4 µM
"COc1cc2c(N3CCN(C(=O)Nc4ccc(OC(C)C)cc4)CC3)ncnc2cc1OCCCN1CCCCC1 [Tandutinib (MLN518), Tandutinib]",IC50,[2]; [10],13.4 µM
same,IC50,[2]; [11],13.4 µM
N#CC(=C(/N)Sc1ccccc1N)/C(C#N)=C(\N)Sc1ccccc1N [U0126],IC50,[2]; read-out: IC50 (μM) No coat,13.4 µM
same,IC50,[2]; read-out: IC50 (μM) With coat,> 25 µM
"Cc1cc(Nc2cc(N3CCN(C)CC3)nc(Sc3ccc(NC(=O)C4CC4)cc3)n2)[nH]n1 [VX-680 (Tozasertib), Tozasertib]",IC50,[2]; [10],0.05 µM
same,IC50,[2]; [11],> 25 µM
Clc1ccc(Nc2nnc(Cc3ccncc3)c3ccccc23)cc1 [Vatalanib],IC50,[2]; [10],> 25 µM
same,IC50,[2]; [11],> 25 µM
COc1cc2c(Oc3ccc(NC(=O)C4(C(=O)Nc5ccc(F)cc5)CC4)cc3F)ccnc2cc1OCCCN1CCOCC1 [XL880 (GSK1363089EXEL-2880)],IC50,[2]; [10],0.05 µM
same,IC50,[2]; [11],13.4 µM
C[C@@H](N)[C@H]1CC[C@H](C(=O)Nc2ccncc2)CC1 [Y27632],IC50,[2]; [6],> 100 µM
same,IC50,[2]; [7],> 100 µM
same,IC50,[2]; [10],> 25 µM
same,IC50,[2]; [11],> 25 µM
FC(F)c1nc2ccccc2n1-c1nc(N2CCOCC2)nc(N2CCOCC2)n1 [ZSTK474],Fold resistance,[2],>8 fold
same,IC50,[2]; [10],3.14 µM
same,IC50,[2]; [11],> 25 µM
CC(C)C[C@H](NC(=O)[C@H](Cc1ccccc1)NC(=O)c1cnccn1)B(O)O [bortezomib],IC50,[2]; [6],0.013 µM
same,IC50,[2]; [7],0.013 µM
C[C@H]1CCC/C=C/[C@@H]2C[C@H](O)C[C@H]2[C@H](O)/C=C/C(=O)O1 [brefeldin A],toxicity to catena cells with a glycocalyx coat,[2]; [12],exert toxicity
COc1cc2c(c(OC)c1OC)-c1ccc(OC)c(=O)cc1[C@@H](NC(C)=O)CC2 [colchicine],toxicity to catena cells with a glycocalyx coat,[2]; [12],exert toxicity
C/C1=C/C[C@@H](/C(C)=C/c2csc(C)n2)OC(=O)C[C@H](O)C(C)(C)C(=O)[C@H](C)[C@@H](O)[C@@H](C)CCC1 [dEpoB],Increase in Resistance Day6/Day 1,[2],"250,000 fold"
same,IC50,[2]; [8],0.0004 µM
same,IC50,[2]; [9],> 100 µM
Cc1nc(Nc2ncc(C(=O)Nc3c(C)cccc3Cl)s2)cc(N2CCN(CCO)CC2)n1 [dasatinib],IC50,[2]; [6],> 100 µM
same,IC50,[2]; [7],> 100 µM
COc1cccc2c1C(=O)c1c(O)c3c(c(O)c1C2=O)C[C@@](O)(C(C)=O)C[C@@H]3O[C@H]1C[C@H](N)[C@H](O)[C@H](C)O1 [daunarubacin],Increase in Resistance Day6/Day 1,[2],133 fold
same,IC50,[2]; [8],0.006 µM
same,IC50,[2]; [9],0.8 µM
COc1cc2c(cc1OC)[C@@H]1C(=O)c3ccc4c(c3O[C@@H]1CO2)C=CC(C)(C)O4 [deguelin],pIC50,[3]; read-out: spheroid IC50,6.40
same,additional resistance conferred by spheroid formation,[3]; spheroid versus catena IC50,15 fold
same,IC50,[2]; [13],0.025 µM
same,IC50,[2]; [14],0.025 µM
c1ccc2c(c1)[I+]c1ccccc1-2 [diphenyleneiodonium chloride],toxicity to catena cells with a glycocalyx coat,[2],exert toxicity
COc1cccc2c1C(=O)c1c(O)c3c(c(O)c1C2=O)C[C@@](O)(C(=O)CO)C[C@@H]3O[C@H]1C[C@H](N)[C@H](O)[C@H](C)O1 [doxorubicin],IC50,[2]; [6],0.025 µM
same,IC50,[2]; [7],0.8 µM
same,Increase in Resistance Day6/Day 1,[2],32 fold
COc1cc([C@@H]2c3cc4c(cc3[C@@H](O[C@@H]3O[C@@H]5CO[C@@H](C)O[C@H]5[C@H](O)[C@H]3O)[C@H]3COC(=O)[C@H]23)OCO4)cc(OC)c1O [etoposide],IC50,[2]; [6],0.4 µM
same,IC50,[2]; [7],50 µM
same,Increase in Resistance Day6/Day 1,[2],125 fold
C/C(=C\c1csc(C)n1)[C@@H]1C/C=C(/C(F)(F)F)C/C=C/[C@H](C)[C@H](O)[C@@H](C)C(=O)C(C)(C)[C@@H](O)CC(=O)O1 [fludelone],IC50,[4],0.0004 µM
same,IC50,[5],0.0008 µM
same,cells seen in cultures treated with high concentrations of compounds,[1],"live, large single cells, i.e., cells arrested at mitosis"
same,Increased Resistance of catena,[2],"125,000 fold"
same,IC50,[2]; [8],≤ 1.2e-05 µM
same,IC50,[2]; [9],> 100 µM
CC[C@H](C)C(=O)O[C@H]1C[C@@H](C)C=C2C=C[C@H](C)[C@H](CC[C@@H](O)C[C@@H](O)CC(=O)O)[C@H]21 [lovastatin acid],cells seen in cultures treated with high concentrations of compounds,[1],"live, large single cells, i.e., cells arrested at mitosis"
same,IC50,[2]; [6],25 µM
same,IC50,[2]; [7],50 µM
same,Increase in Resistance Day6/Day 1,[2],2 fold
CO[C@@]12[C@H](COC(N)=O)C3=C(C(=O)C(C)=C(N)C3=O)N1C[C@@H]1N[C@@H]12 [mitomycin-C],Increase in Resistance Day6/Day 1,[2],60 fold
same,IC50,[2]; [8],0.05 µM
same,IC50,[2]; [9],3 µM
CO[C@H]1C[C@@H]2CC[C@@H](C)[C@@](O)(O2)C(=O)C(=O)N2CCCC[C@H]2C(=O)O[C@H]([C@H](C)C[C@@H]2CC[C@@H](O)[C@H](OC)C2)CC(=O)[C@H](C)/C=C(\C)[C@@H](O)[C@@H](OC)C(=O)[C@H](C)C[C@H](C)/C=C/C=C/C=C/1C [rapamycin],IC50,[2]; [6],12 µM
same,IC50,[2]; [7],25 µM
same,Increase in Resistance Day6/Day 1,[2],2 fold
CC[C@@]1(O)C(=O)OCc2c1cc1n(c2=O)Cc2cc3c(CN(C)C)c(O)ccc3nc2-1 [topotecan],cells seen in cultures treated with high concentrations of compounds,[1],"live, large single cells, i.e., cells arrested at mitosis"
same,IC50,[2]; [6],0.02 µM
same,IC50,[2]; [7],> 100 µM
same,Increase in Resistance Day6/Day 1,[2],"5,000 fold"
COc1ccc(CCN(C)CCCC(C#N)(c2ccc(OC)c(OC)c2)C(C)C)cc1OC (centres unmarked) [verapamil],IC50,[2]; [13],> 100 µM
same,IC50,[2]; [14],> 100 µM
iso-oxazole-fludelone,IC50,[4],0.012 µM
same,IC50,[5],0.05 µM
same,cells seen in cultures treated with high concentrations of compounds,[1],"live, large single cells, i.e., cells arrested at mitosis"
same,Increased Resistance of catena,[2],"2,000 fold"
same,Increase in Resistance Day6/Day 1,[2],"33,333 fold"
same,IC50,[2]; [8],0.003 µM
same,IC50,[2]; [9],> 100 µM
